Laboratory results as given in ChEMBL document CHEMBL1136615, “Carbonic anhydrase inhibitors: inhibition of cytosolic isozymes I and II with sulfamide derivatives” (Bioorg Med Chem Lett, 2003).

How the values were obtained:
Carbonic anhydrase 2 = Carbonic anhydrase 2 (Homo sapiens, UniProt P00918)
Description: Inhibitory activity against human cloned isoenzyme carbonic anhydrase II (hCA II), by esterase method.

Carbonic anhydrase 1 = Carbonic anhydrase 1 (Homo sapiens, UniProt P00915)
Sequence of Carbonic anhydrase 1 (P00915 whole entry): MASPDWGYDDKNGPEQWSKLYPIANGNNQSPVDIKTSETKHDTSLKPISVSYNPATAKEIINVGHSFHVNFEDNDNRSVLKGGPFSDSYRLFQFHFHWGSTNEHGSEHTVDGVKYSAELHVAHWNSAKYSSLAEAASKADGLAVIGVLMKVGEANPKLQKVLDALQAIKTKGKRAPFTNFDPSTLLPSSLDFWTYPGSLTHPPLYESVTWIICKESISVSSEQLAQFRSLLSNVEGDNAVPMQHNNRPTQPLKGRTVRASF
Description: Inhibitory activity against human cloned isoenzyme carbonic anhydrase I (hCA I), by esterase method.

Row | Structure (SMILES) | Ki (Carbonic anhydrase 2) [nM] | Ki (Carbonic anhydrase 1) [nM]
1 | COc1ccc(NS(N)(=O)=O)cc1 | 11 | 14
2 | NS(=O)(=O)N1CCCCCC1 | 131 | 163
3 | NS(=O)(=O)Nc1ccc(I)cc1 | 17 | 18
4 | NS(=O)(=O)Nc1ccc(Br)cc1 | – | 23
5 | CCOC(=O)c1ccc(NS(N)(=O)=O)cc1 | 19 | 26
6 | NS(=O)(=O)N(C1CCCCC1)C1CCCCC1 | > 100000 | > 100000
7 | NS(=O)(=O)Nc1ccc(Cl)cc1 | 15 | 19
8 | CC(C)N(C(C)C)S(N)(=O)=O | > 100000 | > 100000
9 | Cc1ccc(NS(N)(=O)=O)cc1 | 13 | 15
10 | NS(=O)(=O)NCc1ccccc1 | 123 | 133
11 | NS(=O)(=O)Nc1ccc([N+](=O)[O-])cc1 | 13 | 18
12 | NS(=O)(=O)Nc1cccc(C(=O)c2ccccc2)c1 | 49 | 62
13 | CCCCNS(N)(=O)=O | 148 | 173
14 | NS(=O)(=O)NC1CCCCC1 | 450 | 164
15 | NS(=O)(=O)Nc1ccc(O)cc1 | 12 | 16
16 | CN(C)c1ccc(NS(N)(=O)=O)cc1 | 21 | 17
17 | NS(=O)(=O)N(Cc1ccccc1)Cc1ccccc1 | 647 | > 100000
18 | NS(=O)(=O)NC1C2CC3CC(C2)CC1C3 (stereo not given) | 890 | 960
19 | CC(C)CN(CC(C)C)S(N)(=O)=O | > 100000 | > 100000
20 | NS(=O)(=O)NCCSSCCNS(N)(=O)=O | 27 | 149
21 | NS(=O)(=O)Nc1ccccc1 [PHENYLSULFAMIDE] | – | 13
